Columns and labels:
α-GLU [1] = assay: UF-HPLC screening, binding degree with α-GLU; settings: PCR extraction 5 mg/mL, 6 U/mL α-GLU, 37 °C 60 min, active vs inactive enzyme peak area
Protocol: (§1) The UF experiment was performed according to the method described in the literature, with slight modifications. In the experimental group, 200 µL of the PCR extraction (5 mg/mL) was mixed with 200 µL of 3 enzyme solutions (200 U/mL of TYR, 4 U/mL of XOD, and 6 U/mL of α-GLU, respectively). The mixtures were incubated at 37 °C for 60 min, and then 200 μL of each of them was transferred to a 3 KDa molecular weight cut-off ultrafiltration centrifuge tube to separate the unbound compounds from the enzyme–ligand complexes by centrifugation (9400× g, 30 min). Finally, the ultrafiltration filter was washed three times with 5% methanol–PBS under centrifugal conditions (9400× g, 30 min) to completely remove any unbound components. The concentration and pH of the PBS used for the different enzymes were the same as for the offline inhibition tests.
(§2) Finally, the unbound component solutions of the experimental and control groups were analyzed by HPLC. […] Binding degree = (1 − P2/P1) × 100%(2)
(§3) HPLC condition: An Agilent 1260 high-performance liquid chromatography system (Agilent Technologies, Santa Clara, CA, USA), equipped with a quaternary pump system, an auto-sampler, a column oven, and a diode array detector, was employed in the current experiment. The sample was separated on an Agilent Poroshell 120 EC-C18 column (100 mm × 4.6 mm, 2.7 μm). The column temperature was set at 30 °C. The mobile phase was 0.1% aqueous formic acid (A) and acetonitrile (B), with a gradient elution procedure of 5% B (0 min), 5% B (3 min), 20% B (23 min), 24% B (28 min), 60% B (32 min), and 100% B (38 min). The flow rate was 0.6 mL/min. The detection wavelength was set at 290 nm, and the injection volume was 5.0 µL.

XOD [2] = biological target: T1, XOD (Bos taurus, UniProt P80457); assay: UF-HPLC screening, binding degree with XOD; settings: PCR extraction 5 mg/mL, 4 U/mL XOD, 37 °C 60 min, active vs inactive enzyme peak area
T1 construct: purchased Sigma-Aldrich (Shanghai, China)
T1 sequence (P80457 whole entry): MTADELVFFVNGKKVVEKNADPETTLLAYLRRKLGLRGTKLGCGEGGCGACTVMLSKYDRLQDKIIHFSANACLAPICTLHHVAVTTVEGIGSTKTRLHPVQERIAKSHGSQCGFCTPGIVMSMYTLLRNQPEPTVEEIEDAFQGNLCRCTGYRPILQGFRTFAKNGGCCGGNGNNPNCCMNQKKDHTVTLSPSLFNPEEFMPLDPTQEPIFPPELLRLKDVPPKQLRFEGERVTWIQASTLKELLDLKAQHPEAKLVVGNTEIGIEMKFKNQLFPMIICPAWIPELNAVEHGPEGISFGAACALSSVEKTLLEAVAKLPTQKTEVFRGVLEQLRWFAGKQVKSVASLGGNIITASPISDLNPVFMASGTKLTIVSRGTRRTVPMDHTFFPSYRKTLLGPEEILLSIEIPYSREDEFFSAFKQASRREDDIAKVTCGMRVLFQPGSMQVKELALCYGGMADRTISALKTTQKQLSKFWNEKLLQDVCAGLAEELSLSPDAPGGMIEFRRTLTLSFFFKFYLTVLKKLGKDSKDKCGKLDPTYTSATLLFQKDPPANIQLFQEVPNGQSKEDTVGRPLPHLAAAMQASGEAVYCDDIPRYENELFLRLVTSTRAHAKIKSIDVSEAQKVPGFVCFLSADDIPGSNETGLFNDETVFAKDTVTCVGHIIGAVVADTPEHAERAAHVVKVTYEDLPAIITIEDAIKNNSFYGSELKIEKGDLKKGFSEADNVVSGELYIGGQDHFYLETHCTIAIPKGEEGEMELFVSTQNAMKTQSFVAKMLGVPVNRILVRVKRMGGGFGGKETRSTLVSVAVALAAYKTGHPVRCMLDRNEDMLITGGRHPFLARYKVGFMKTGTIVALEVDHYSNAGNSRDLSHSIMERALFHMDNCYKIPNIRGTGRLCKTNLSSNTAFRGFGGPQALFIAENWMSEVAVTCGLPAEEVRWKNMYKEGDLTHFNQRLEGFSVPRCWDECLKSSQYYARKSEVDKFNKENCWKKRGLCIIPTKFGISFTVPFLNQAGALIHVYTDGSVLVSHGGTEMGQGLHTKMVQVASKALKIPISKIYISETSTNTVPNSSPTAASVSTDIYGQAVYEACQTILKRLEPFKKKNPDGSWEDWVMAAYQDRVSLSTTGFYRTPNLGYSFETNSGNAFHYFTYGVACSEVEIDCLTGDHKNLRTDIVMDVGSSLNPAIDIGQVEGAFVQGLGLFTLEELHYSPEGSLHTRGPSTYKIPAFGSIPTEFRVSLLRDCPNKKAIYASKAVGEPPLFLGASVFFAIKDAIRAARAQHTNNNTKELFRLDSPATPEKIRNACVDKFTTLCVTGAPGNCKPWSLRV
Protocol: as §1, §2, §3

TYR [3] = assay: UF-HPLC screening, binding degree with TYR; settings: PCR extraction 5 mg/mL, 200 U/mL TYR, 37 °C 60 min, active vs inactive enzyme peak area
Protocol: as §1, §2, §3

tyrosinase (TYR) = biological target: T2, tyrosinase (TYR) (Agaricus bisporus, UniProt C7FF04); assay: Tyrosinase (TYR) inhibition test, offline 96-well microplate; type: biochemical
T2 construct: purchased Sigma-Aldrich (Shanghai, China)
T2 sequence (C7FF04 1-392 limits assumed): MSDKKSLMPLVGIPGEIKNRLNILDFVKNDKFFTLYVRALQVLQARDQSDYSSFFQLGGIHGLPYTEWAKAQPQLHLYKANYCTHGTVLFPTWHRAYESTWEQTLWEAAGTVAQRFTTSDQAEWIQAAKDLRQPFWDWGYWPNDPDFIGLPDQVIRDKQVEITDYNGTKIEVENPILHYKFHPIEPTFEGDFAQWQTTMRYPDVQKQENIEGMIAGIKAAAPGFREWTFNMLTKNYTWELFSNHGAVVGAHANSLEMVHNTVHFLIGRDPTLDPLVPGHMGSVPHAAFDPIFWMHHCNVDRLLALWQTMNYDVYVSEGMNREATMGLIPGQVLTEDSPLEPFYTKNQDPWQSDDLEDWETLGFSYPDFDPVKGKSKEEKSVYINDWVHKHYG
Protocol: The reaction was incubated at 25 °C for 50 min. […] Inhibition (%) = [(Abscontrol − Abssample)/Abscontrol] × 100%(1)

TYR [4] = assay: Kinetic analysis (Lineweaver–Burk) on TYR; type: biochemical; settings: Lineweaver–Burk plot, L-tyrosine 1.0~5.0 mM, TYR 200 U/mL
Protocol: (§4) Subsequently, kinetic analysis was conducted using Lineweaver–Burk plots to investigate the inhibition modes on enzymes caused by methylgallate and polydatin. Competitive, noncompetitive, and mixed inhibitions are three common modes in enzyme kinetic analysis. […] All of the straight lines almost intersect on the Y axis at a certain point. […] All of the straight lines almost intersect on the X axis at a certain point. […] All of the straight lines usually intersect in the quadrants at one point.
(§5) In this work, Lineweaver–Burk was used to investigate the inhibition type of methylgallate and polydatin on enzymes. For TYR, the concentration of the enzyme was kept constant at 200 U/mL, and various concentrations of L-tyrosine (1.0~5.0 mM) were prepared. Various concentrations of methylgallate (0.0~1.3 mM) and polydatin (0.0~0.4 mM) were also provided. For XOD, the concentration of the enzyme was kept constant at 0.05 U/mL, and various concentrations of xanthin (0.06~0.50 mM) were prepared. Various concentrations of polydatin (0.0~0.5 mM) were also provided. For α-GLU, the concentration of the enzyme was kept constant at 0.15 U/mL, and various concentrations of ρNPG (0.8~5.0 mM) were prepared. Various concentrations of polydatin (0.0~3.6 mM) were also provided. GraphPad Prism 5.0 software (USA) was used for the calculation.

xanthine oxidase (XOD) = xanthine oxidase (XOD) (Bos taurus, UniProt P80457); assay: Xanthine oxidase (XOD) inhibition test, offline 96-well microplate
xanthine oxidase (XOD), sequence (P80457 whole entry): as the sequence (P80457 whole entry) above
Protocol: In the XOD inhibition assay, each well contained 30 μL of the PCR sample, 30 μL of XOD (0.05 U/mL, dissolved in 200 mM of phosphate buffer, pH 8.5), and 15 μL of NBT (2 mg/mL, dissolved in 200 mM of phosphate buffer, pH 8.5). […] The reaction was stopped by adding 15 µL of SDS (10%). The reaction solution was tested at 560 nm.

α-GLU [5] = assay: Kinetic analysis (Lineweaver–Burk) on α-GLU; type: biochemical; settings: Lineweaver–Burk plot, ρNPG 0.8~5.0 mM, α-GLU 0.15 U/mL
Protocol: as §4, §5

XOD [6] = biological target: T1, XOD; assay: Kinetic analysis (Lineweaver–Burk) on XOD; type: biochemical; settings: Lineweaver–Burk plot, xanthin 0.06~0.50 mM, XOD 0.05 U/mL
Protocol: as §4, §5

Row | Compound | Binding degree: α-GLU (α-GLU [1]) [%] | Binding degree: XOD (XOD [2]) [%] | Binding degree: TYR (TYR [3]) [%] | also measured
1 | O=C(OC[C@H]1O[C@@H](OC(=O)c2cc(O)c(O)c(O)c2)[C@H](O)[C@@H](O)[C@@H]1O)c1cc(O)c(O)c(O)c1 [1,6-Di-O-galloyl-D-glucose (2), 1,6-Di-O-galloyl-D-glucose] | 0.00 | 50.69 | 77.53 | –
2 | O=C(O)CC(=O)OCC1OC(Oc2cc(O)cc(C=Cc3ccc(O)cc3)c2)C(O)C(O)C1O (stereo not shown) [Malonyl glucoside resveratrol (6), Malonyl glucoside resveratrol] | 11.90 | 49.77 | 57.00 | –
3 | COC(=O)c1cc(O)c(O)c(O)c1 [Methylgallate (1), Methylgallate] | 0.00 | 0.00 | 36.03 | IC50 (tyrosinase (TYR)): 555 µM; inhibition mode on TYR (TYR [4]): noncompetitive type
4 | OC[C@H]1O[C@@H](Oc2cc(O)cc(/C=C/c3ccc(O)cc3)c2)[C@H](O)[C@@H](O)[C@@H]1O [Polydatin (5), Polydatin] | – | – | – | Binding degree: α-GLU (α-GLU [1]; listed as Peak 5): 16.51%; IC50 (xanthine oxidase (XOD)): 2130 µM; Binding degree: XOD (XOD [2]; listed as Peak 5): 55.80%; IC50 (tyrosinase (TYR)): 188 µM; inhibition mode on α-GLU (α-GLU [5]): mixed type; inhibition mode on TYR (TYR [4]): mixed type; inhibition mode on XOD (XOD [6]): competitive type; Binding degree: TYR (TYR [3]; listed as Peak 5): 80.74%
5 | OC[C@H]1O[C@@H](Oc2ccc(/C=C/c3cc(O)cc(O[C@@H]4O[C@H](CO)[C@@H](O)[C@H](O)[C@H]4O)c3)cc2)[C@H](O)[C@@H](O)[C@@H]1O [Polydatin-4′-O-D-glucoside (3), Polydatin-4′-O-D-glucoside] | 0.00 | 0.00 | 57.64 | –
6 | OC[C@H]1O[C@@H](Oc2ccc(/C=C/c3cc(O)cc(O)c3)cc2)[C@H](O)[C@@H](O)[C@@H]1O [Resveratrol-4′-O-D-glucoside (4), Resveratrol-4′-O-D-glucoside] | 14.58 | 30.66 | 71.32 | –
7 | OC[C@H]1O[C@@H](Oc2cc(O)cc(/C=C/c3ccc(O)cc3)c2)[C@H](O)[C@@H](O)[C@@H]1O [Resveratrol-5-O-D-glucoside (7), Resveratrol-5-O-D-glucoside] | – | – | – | Binding degree: α-GLU (α-GLU [1]; listed as Peak 7): 0.00%; Binding degree: XOD (XOD [2]; listed as Peak 7): 11.65%; Binding degree: TYR (TYR [3]; listed as Peak 7): 70.51%

— article PMC10221946, “Screening of Tyrosinase, Xanthine Oxidase, and α-Glucosidase Inhibitors from Polygoni Cuspidati Rhizoma et Radix by Ultrafiltration and HPLC Analysis” (Molecules, 2023)
